In patent US20050209251A1, “Substituted pyrazolo-pyrimidine-4-ones” (priority 2002, published 2005):

How the values were obtained:
Meloidogyne incognita = assay: Meloidogyne test (nematicidal action); assay type: in vivo; settings: Meloidogyne incognita egg/larvae suspension, lettuce in sand
Method: Meloidogyne Test (Nematicidal Action)
To produce a suitable preparation of active compound, 1 part by weight of active compound is mixed with the stated amounts of solvent and emulsifier, and the concentrate is diluted with water to the desired concentration.
Vessels are filled with sand, solution of active compound, Meloidogyne incognita egg/larvae suspension and lettuce seeds. The lettuce seeds germinate and the plants develop. On the roots, galls are formed.
After the desired period of time, the nematicidal action is determined in % by the formation of galls. 100% means that no galls have been found; 0% means that the number of galls on treated plants corresponds to that of the untreated control.

weeds [1] = assay: Pre-emergence test (herbicidal action); assay type: in vivo; settings: soil sprayed 24 hours after sowing, rated after three weeks
Method: Pre-Emergence Test (Herbicidal Action)
(§1) To produce a suitable preparation of active compound, 1 part by weight of active compound is mixed with the stated amount of solvent, the stated amount of emulsifier is added and the concentrate is diluted with water to the desired concentration.
Seeds of the test plants are sown in normal soil. After 24 hours, the soil is sprayed with the preparation of active compound such that the particular amount of active compound desired is applied per unit area. The concentration of active compound in the spray liquor is chosen such that the particular amount of active compound desired is applied in 1000 litres of water per hectare.
(§2) After three weeks, the degree of damage to the plants is rated in % damage in comparison to the development of the untreated control.

weeds [2] = assay: Post-emergence test (herbicidal action); assay type: in vivo; settings: test plants of 5-15 cm sprayed, rated after three weeks
Method: Post-Emergence Test (Herbicidal Action)
as §1
Test plants of a height of 5-15 cm are sprayed with the preparation of active compound such that the particular amounts of active compound desired are applied per unit area. The concentration of the spray liquor is chosen such that the particular amounts of active compound desired are applied in 1000 l of water/ha.
as §2

[3] = logP determination by reversed-phase HPLC (EEC Directive 79/831 Annex V.A8), acidic range; assay type: physicochemical; settings: for chromatographic logP: pH 2, HPLC, C18 reversed-phase column, read-out: logP (pH 2)
Method: The logP values given in the table were determined in accordance with EEC Directive 79/831 Annex V.A8 by HPLC (High Performance Liquid Chromatography) using a reversed-phase column (C 18). Temperature: 43° C.
(a) Mobile phases for the determination in the acidic range: 0.1% phosphoric acid, acetonitrile; linear gradient from 10% acetonitrile to 90% acetonitrile—the corresponding measurement results in Table 1 are marked a).
Calibration was carried out using unbranched alkan-2-ones (having 3 to 16 carbon atoms) with known logP values (determination of the logP values by the retention times using linear interpolation between two successive alkanones).

melting point	chromatographic logP [3]	SMILES	nematicidal action (formation of galls) (Meloidogyne incognita)	herbicidal action against weeds (degree of damage) (weeds [1])	herbicidal action against weeds (degree of damage) (weeds [2])	logP a) (Table 1, Physical data) [3]
		CCc1nc2c(cnn2-c2ncc(C(F)(F)F)cc2Cl)c(=O)n1C [Example 16]	good activity	strong action against weeds	strong action against weeds	(I) logP = 2.46^a)
		Cn1c(C2CC2)nc2c(cnn2-c2ncc(Cl)cc2Cl)c1=O [Example 80]	good activity	strong action against weeds	strong action against weeds	(I) logP = 2.30^a)
204 °C	2.02	NC(=O)c1cnn(-c2ncc(C(F)(F)F)cc2Cl)c1NC(=O)C1(F)CC1 [VI-1, 5-(1-fluorocyclopropylcarbonylamino)-1-(3-chloro-5-trifluoromethylpyridin-2-yl)pyrazole-4-carboxamide]				
211 °C	2.29	O=c1[nH]c(C2(F)CC2)nc2c1cnn2-c1ncc(C(F)(F)F)cc1Cl [Example 6, 6-(1-fluorocyclopropyl)-1-(3-chloro-5-trifluoromethylpyridin-2-yl)-1,5-dihydropyrazolo[3,4-d]pyrimidin-4-one]			strong action against weeds	
239 °C	2.19	O=c1[nH]c(C2CC2)nc2c1cnn2-c1ncc(C(F)(F)F)cc1Cl [Example 5, 1-(3-chloro-5-trifluoromethylpyridin-2-yl)-6-cyclopropyl-1,5-dihydropyrazolo[3,4-d]pyrimidin-4-one]				
195 °C	2.69	Cc1nc2c(cnn2-c2c(Cl)cc(C(F)(F)F)cc2Cl)c(=O)n1C [Example 4, 1-(2,6-dichloro-4-trifluoromethylphenyl)-5,6-dimethyl-1,5-dihydropyrazolo[3,4-d]pyrimidin-4-one]				
